Source: patent publication US12037324B2, “Biarylmethyl heterocycles” (Université de Montréal, priority 2016, dated 2024)

Key:
hAT1R [1] = target: T1, hAT1R (Homo sapiens, UniProt P30556); assay: BRET β-arrestin2 biosensor assay, higher receptor expression (hAT1R 5 ng/well), HEK293 cells; type: cell-based; conditions: for EC50: High AT1R Expression
T1 sequence (P30556 1-359): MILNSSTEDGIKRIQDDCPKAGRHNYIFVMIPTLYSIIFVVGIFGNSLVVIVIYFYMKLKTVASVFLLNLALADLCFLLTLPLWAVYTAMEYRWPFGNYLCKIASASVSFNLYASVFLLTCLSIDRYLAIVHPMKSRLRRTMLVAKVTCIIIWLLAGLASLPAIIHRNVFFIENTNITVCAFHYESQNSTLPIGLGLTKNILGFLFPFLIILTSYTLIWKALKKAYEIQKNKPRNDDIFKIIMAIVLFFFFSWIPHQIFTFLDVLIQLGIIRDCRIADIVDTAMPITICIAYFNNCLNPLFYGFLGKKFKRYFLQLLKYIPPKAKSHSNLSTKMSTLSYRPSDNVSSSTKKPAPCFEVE

hAT1R [2] = target: T1, hAT1R; assay: cell-based
hAT1R [3] = target: T1, hAT1R; assay: cell-based; conditions: agonist mode; for EC50: read-out: BRET P63 EC50
AGTR1 [4] = target: T2, AGTR1 (Homo sapiens, UniProt P30556); assay: DiscoveRx β-arrestin2 recruitment assay (enzyme complementation, Pathunter CHO-K1 AGTR1 β-arrestin cell line); type: cell-based; conditions: DiscoveRx β-arrestin2 recruitment; for DiscoveRx β-arrestin2 Ymax (%): maximal response
T2 construct: host or cells: Pathunter CHO-K1 AGTR1 β-arrestin cell line (CHO-K1)
T2 sequence (P30556 1-359): T1 sequence (P30556 1-359)
Procedure, shortened: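 Chemiluminescent enzyme-complementation read-out of β-arrestin2 recruitment to AGTR1 in engineered CHO-K1 cells after 90 min compound exposure at 37° C. Values are 4-parameter logistic EC50s in agonist mode, IC50s in antagonist mode, with efficacy relative to the maximal All response.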

AGTR1 [5] = target: T2, AGTR1; assay: DiscoveRx IP1 accumulation assay (HTRF), agonist mode, Pathunter CHO-K1 AGTR1 β-arrestin cell line; type: cell-based; conditions: for EC50: read-out: IP-1 EC50
Procedure, shortened: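 Agonist mode in CHO-K1 AGTR1 β-arrestin cells plated 14-16 h before; compounds at varying concentrations for 90 min at 37° C, IP1 accumulation read by HTRF (D2-conjugate and anti-IP1 cryptate, 20 min room temperature). EC50 from 4-parameter logistic fit; activity given as percentage of maximal AII effect.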

[6] = Low AT1R Expression, read-out: BRET β-Arrestin2 Low AT1R Expression EC50
[7] = section of the 42nd table ending at r951, example numbering restarts after the DiscoveRx section, read-out: β-arrestin2 EC50

Compound	BRET β-Arrestin2 High AT1R Expression Ymax (%) (hAT1R [1])	EC50 (hAT1R [1])	EC50 (hAT1R [2]; [6])	EC50 (hAT1R [3])	EC50 (AGTR1 [4])	DiscoveRx β-arrestin2 Ymax (%) (AGTR1 [4])	EC50 (AGTR1 [5])	IP-1 Ymax (%) (AGTR1 [5])	BRET β-Arrestin2 Low AT1R Expression Ymax (%) (hAT1R [2]; Low AT1R Expression)	BRET P63 Ymax (hAT1R [3])	EC50 (hAT1R [2]; [7])
CCCC1=NC2(CCCC2)C(=O)N1Cc1ccc(-c2cc(N3CCC[C@@H](C)C3)ccc2-c2nn[nH]n2)cc1 [Example 117]	35.0%	0.0942 µM	> 100 µM	> 100 µM	0.074 µM	30.6%	> 100 µM				
CCc1nc2c(C)cc(C)nc2n1Cc1ccc(-c2cc(-c3cccc(C)n3)ccc2-c2nn[nH]n2)cc1 [Example 59]	52.1%	0.014 µM	> 10 µM	> 10 µM	0.0125 µM	29.5%	0.0219 µM	10.4%			
CCc1nc2c(C)cc(C)nc2n1Cc1ccc(-c2cc(-c3ccccc3)ccc2-c2noc(=O)[nH]2)cc1 [Example 32, 3-(4″-((2-ethyl-5,7-dimethyl-3H-imidazo[4,5-b]pyridin-3-yl)methyl)-[1,1′:3′,1″-terphenyl]-4′-yl)-1,2,4-oxadiazol-5(4H)-one]	91.6%	0.0051 µM	0.0125 µM	0.0211 µM	0.0343 µM	86.1%	0.0384 µM	10.8%	80.9%	25.2%	
CCc1nc2c(C)cc(C)nc2n1Cc1ccc(-c2cc(C3CCCCO3)ccc2-c2nn[nH]n2)cc1 (single isomer, unassigned) [Example 78, 2-ethyl-5,7-dimethyl-3-((5′-(tetrahydro-2H-pyran-2-yl)-2′-(2H-tetrazol-5-yl)-[1,1′-biphenyl]-4-yl)methyl)-3H-imidazo[4,5-b]pyridine]	94.3%	0.015 µM	0.0375 µM	0.0723 µM	0.0199 µM	50.0%	0.0795 µM	37.8%	85.0%	36.1%	
CCc1nc2c(C)cc(C)nc2n1Cc1ccc(-c2cc(-c3cn(CC4CC4)nn3)ccc2-c2nnn[nH]2)cc1 [Example 237]	84.4%	0.0163 µM		0.0605 µM	0.0553 µM	62.3%	0.0797 µM	13.7%		21.1%	0.112 µM
CCc1nc2c(C)cc(C)nc2n1Cc1ccc(-c2cc(Oc3ncccc3F)ccc2-c2nn[nH]n2)cc1 [Example 253]	85.3%	0.0179 µM		0.0383 µM	0.0312 µM	37.2%	0.133 µM	18.7%		12.6%	0.046 µM
CCCCC1=NC2(CCCC2)C(=O)N1Cc1ccc(-c2cc(-c3ccc(C)cc3)ccc2-c2nn[nH]n2)cc1 [Example 122, 2-butyl-3-((4″-methyl-6′-(2H-tetrazol-5-yl)-[1,1′:3′,1″-terphenyl]-4-yl)methyl)-1,3-diazaspiro[4.4]non-1-en-4-one]	94.3%	0.0175 µM	0.0308 µM	> 10 µM	0.0161 µM	33.8%	0.0354 µM	5.5%	31.6%		
CCc1nc2c(C)cc(C)nc2n1Cc1ccc(-c2cc(-c3cccc(C)c3)ccc2-c2nn[nH]n2)cc1 [Example 8]	93.0%	0.0041 µM	0.0054 µM	0.0077 µM	0.006 µM	42.2%	0.006 µM	6.9%	80.5%	14.0%	
CCc1nc2c(C)cc(C)nc2n1Cc1ccc(-c2cc(-n3cc(C)nn3)ccc2-c2nnn[nH]2)cc1 [Example 232]				> 100 µM	0.0169 µM	41.5%	0.06 µM	7.5%			0.101 µM
CCC1=NC2(CCOC2)C(=O)N1Cc1ccc(-c2cc(-c3ccccc3O)ccc2-c2nnn[nH]2)cc1 (single isomer, unassigned) [Example 167]				0.0915 µM	0.036 µM	78.8%	0.165 µM	32.4%		32.0%	0.0583 µM
CCc1nc2c(C)cc(C)nc2n1Cc1ccc(-c2cc(-c3ccccc3)ccc2C(=O)NS(C)(=O)=O)cc1 [Example 244]				0.0696 µM	0.0965 µM	34.7%	0.201 µM	11.0%		15.3%	0.111 µM
CC1=NC2(CCOCC2)C(=O)N1Cc1ccc(-c2cc(-c3ccccc3)ccc2-c2nn[nH]n2)cc1 [Example 172, 3-((6′-(2H-tetrazol-5-yl)-[1,1′:3′,1″-terphenyl]-4-yl)methyl)-2-methyl-8-oxa-1,3-diazaspiro[4.5]dec-1-en-4-one]				> 10 µM	0.196 µM	27.1%	0.782 µM	9.4%			> 10 µM
CCCCC1=NC2(CCOCC2)C(=O)N1Cc1ccc(-c2cc(-c3cccc(C)c3)ccc2-c2nn[nH]n2)cc1 [Example 155, 2-butyl-3-((3″-methyl-6′-(2H-tetrazol-5-yl)-[1,1′:3′,1″-terphenyl]-4-yl)methyl)-8-oxa-1,3-diazaspiro[4.5]dec-1-en-4-one]				> 100 µM	0.0408 µM	32.0%	> 100 µM				0.0427 µM
CCc1nc2c(C)cc(C)nc2n1Cc1ccc(-c2cc(-c3cn(CCF)nn3)ccc2-c2nnn[nH]2)cc1 [Example 239]				0.0167 µM	0.0054 µM	59.1%	0.0307 µM	34.2%		44.3%	0.009 µM
CCc1nc2c(C)cc(C)nc2n1Cc1ccc(-c2cc(-c3cc(C)c(F)cn3)ccc2-c2nn[nH]n2)cc1 [Example 66]			0.0166 µM	> 10 µM	0.0058 µM	25.8%	0.0085 µM	6.9%	39.4%		
